US20060287319A1, “Anti-viral compositions comprising heterocyclic substituted phenyl furans and related compounds” (priority 2005, published 2006)
Where two headings read alike, the source gives them in different places.

Legend:
HIV-1 IIIB = assay: HIV-1-mediated cytopathic effect (CPE); type: cell-based; conditions: read-out: EC50 (μM) (M ± SD) for inhibition of CPE
Source text: We thus purchased these compounds and tested their inhibitory activity on: 1) HIV-1 replication (p24 production); 2) HIV-1-mediated cytopathic effect (CPE); and 3) HIV-1 Env-induced cell-cell fusion; and their cytotoxicity to MT-2 cells.

[1] = system: HIV-1 AZT-R, a strain resistant to AZT; conditions: read-out: IC50 (μM) (Mean ± SD); HIV-1 strain AZT-R
Procedure: (§1) Assessment of anti-HIV-1 infectivity. The inhibitory activity of compounds on infection by laboratory-adapted HIV-1 strains was determined as previously described (34). In brief, 1×10^4 MT-2 cells were infected with HIV-1 at 100 TCID50 (50% tissue culture infective dose) in 200 μl of RPMI 1640 medium containing 10% FBS in the presence or absence of compounds at graded concentrations overnight. For the time-of-addition assay, compounds were added at various time post-infection. Then the culture supernatants were removed and fresh media were added. On the fourth day post-infection, 100 μl of culture supernatants were collected from each well, mixed with equal volumes of 5% Triton X-100 and assayed for p24 antigen, which was quantitated by ELISA (23). Briefly, the wells of polystyrene plates (Immulon 1B, Dynex Technology, Chantilly, Va.) were coated with HIV immunoglobulin (HIVIG), which was prepared from plasma of HIV-seropositive donors with high neutralizing titers against HIV-1IIIB as previously described (36) in 0.085 M carbonate-bicarbonate buffer (pH 9.6) at 4° C. overnight, followed by washes with PBS-T buffer (0.01M PBS containing 0.05% Tween-20) and blocking with PBS containing 1% dry fat-free milk (Bio-Rad Inc., Hercules, Calif.). Virus lysates were added to the wells and incubated at 37° C. for 1 h. […] Reactions were terminated by addition of 1N H2SO4. Absorbance at 450 nm was recorded in an ELISA reader (Ultra 384, Tecan). Recombinant protein p24 (US Biological, Swampscott, Mass.) was included for establishing standard dose response curve.

[2] = system: laboratory-adapted HIV-1 strains, including RF, SF2, MN, and AZT-R; conditions: dose-dependent
Procedure: as §1

HIV-1 MN = conditions: read-out: IC50 (μM) (Mean ± SD); HIV-1 strain MN
Procedure: as §1

HIV-1 SF2 = conditions: read-out: IC50 (μM) (Mean ± SD); HIV-1 strain SF2
Procedure: as §1

HIV-1 RF = conditions: read-out: IC50 (μM) (Mean ± SD); HIV-1 strain RF
Procedure: as §1

MT-2 cells = system: MT-2 cells
Procedure: Detection of in vitro cytotoxicity. The in vitro cytotoxicity of compounds for MT-2 cells was measured by a colorimetric method using XTT tetrazolium dye as previously described (21). Briefly, 100 μl of a compound at a graded concentration was added to equal volume of cells (5×10^5/ml) in a well of 96-well plates. After incubation at 37° C. for 4 days, XTT (1 mg/ml; […]; PolySciences, Inc., Warrington, Pa.) was added. Four hours later, the soluble intracellular formazan was quantitated colorimetrically at 450 nm with a reference at 570 nm.

92UG001 (clade D, X4) = conditions: read-out: EC50 (μM) (Mean ± SD)
Procedure: Inhibitory activity of compounds on infection by primary HIV-1 isolates was determined as previously described (37). PBMCs were isolated from the blood of healthy donors at the New York Blood Center by standard density gradient centrifugation using Histopaque-1077 (Sigma). The cells were plated in 75 cm^2 plastic flasks and incubated at 37° C. for 2 hrs. The nonadherent cells were collected and resuspended at 5×10^6 in 10 ml RPMI-1640 medium containing 10% FBS, 5 μg/ml PHA and 100 U/ml IL-2 (Sigma), followed by incubation at 37° C. for 3 days. The PHA-stimulated cells were infected with corresponding primary HIV-1 isolates at 0.01 multiplicity of infection (MOI) in the absence or presence of a compound at graded concentrations. Culture media were changed every 3 days. The supernatants were collected 7 days post-infection and tested for p24 antigen by ELISA as described above. The percent inhibition of p24 production and IC50 values were calculated as described above.

[3] = molecular target: gp41 six-helix bundle formation between N36 and C34 (Human immunodeficiency virus type 1 group M subtype B, UniProt P04578); conditions: read-out: IC50 for inhibition of six-helix bundle formation between N36 and C34; sandwich ELISA, FIG. 3
Chain of gp41 six-helix bundle formation between N36 and C34 (P04578 546-581): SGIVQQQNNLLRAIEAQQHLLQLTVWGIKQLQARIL
Procedure: ELISA for screening for compounds that inhibit the gp41 six-helix bundle formation. A sandwich ELISA as previously described (27) was used to screen for compounds that inhibit the gp41 six-helix bundle formation. Briefly, peptide N36 (2 μM) was pre-incubated with a test compound at the indicated concentrations at 37° C. for 30 min, followed by addition of C34 (2 μM). In the control experiments, N36 was pre-incubated with C34 at 37° C. for 30 min, followed by addition of the test compound. After incubation at 37° C. for 30 min, the mixture was added to wells of a 96-well polystyrene plate (Costar, Corning Inc., Corning, N.Y.) which were precoated with IgG (2 μg/ml) purified from rabbit antisera directed against the N36/C34 mixture. […] Absorbance at 450 nm was measured using an ELISA reader (Ultra 384, Tecan, Research Triangle Park, N.C.). […] Chou (Sloan-Kettering Cancer Center, New York, N.Y.).
A model system of the gp41 six-helix bundle was established by mixing the N— and C-peptides at equal molar concentrations (16).

[4] = system: HIV-1IIIB infected H9 cells (H9/HIV-1IIIB) and MT-2 cells; assay: HIV-1 mediated cell-cell fusion (dye transfer assay); type: cell-based; conditions: for EC50: H9/HIV-1IIIB with MT-2 cells, read-out: EC50 (μM) (M ± SD) for inhibition of Cell fusion; for inhibition of fusion of HIV-1IIIB infected H9 cells with uninfected MT-2 cells: dose dependent, FIG. 2
Procedure: Inhibition of cell-cell fusion. A dye transfer assay was used for detection of HIV-1 mediated cell fusion as previously described (11,25,26). H9/HIV-1IIIB cells were labeled with a fluorescent reagent, Calcein-AM (Molecular Probes, Inc., Eugene, Oreg.) and then incubated with MT-2 cells (ratio=1:5) in 96-well plates at 37° C. for 2 hrs in the presence or absence of compounds tested. The fused and unfused Cacein-labeled HIV-1-infected cells were counted under an inverted fluorescence microscope (Zeiss, Germany) with an eyepiece micrometer disc. The percentage of inhibition of cell fusion and the IC50 values were calculated as previously described (11).

[5] = read-out: Cytotoxicity CC50 (μM) (M ± SD), MT-2 cells

CCN1C(=O)/C(=C/c2ccc(-c3cccc(C(=O)O)c3)o2)SC1=S [NB179] was tested, and the EC50 (HIV-1 IIIB) was 0.924 ± 0.077 µM, the IC50 [1] was 4.39 ± 0.471 µM and the “IC50 values, infection by other laboratory-adapted HIV-1 strains” value (“IC50 values, infection” for short) [2] was “nanomolar range”. It also gave an IC50 (HIV-1 MN) of 2.93 ± 0.362 µM, an IC50 (HIV-1 SF2) of 11.9 ± 1.7 µM and an IC50 (HIV-1 RF) of 4.2 ± 0.256 µM. The CC50 (MT-2 cells) was greater than 616 µM, the EC50 (92UG001 (clade D, X4)) was 0.613 ± 0.099 µM and the IC50 [3] was 2510 ± 270 nM. The EC50 [4] was 3.66 ± 0.154 µM and the “inhibition of fusion of HIV-1IIIB infected H9 cells with uninfected MT-2 cells” value (shortened to “inhibition”) [4] was “inhibited fusion”.

In the case of O=C(O)c1cc(-c2ccc(/C=C3\SC(=S)N(CCc4ccccc4)C3=O)o2)ccc1Cl [NB206], the EC50 (HIV-1 IIIB) is reported as 0.092 ± 0.002 µM, the IC50 [1] is reported as 0.046 ± 0.004 µM and the “IC50 values, infection” value [2] is reported as “nanomolar range”. The IC50 (HIV-1 MN) was 0.174 ± 0.027 µM, the IC50 (HIV-1 SF2) was 0.261 ± 0.062 µM and the IC50 (HIV-1 RF) was 0.034 ± 0.014 µM. It also gave a CC50 (MT-2 cells; [5]) of 18.8 ± 7.48 µM, an EC50 (92UG001 (clade D, X4)) of 0.188 ± 0.053 µM and an IC50 [3] of 830 ± 30 nM. For the same compound, the IC50 [4] was less than 667 nM, the EC50 [4] was 0.459 ± 0.05 µM and the “inhibition” value [4] was “inhibited fusion”.

For O=C(O)c1cccc(-c2ccc(/C=C3\SC(=S)N(c4ccc(Cl)cc4Cl)C3=O)o2)c1 [NB231], the EC50 (HIV-1 IIIB) was 0.525 ± 0.126 µM, the IC50 [1] was 0.823 ± 0.053 µM and the “IC50 values, infection” value [2] was “nanomolar range”. It also gave an IC50 (HIV-1 MN) of 1.69 ± 0.044 µM, an IC50 (HIV-1 SF2) of 4.68 ± 0.559 µM and an IC50 (HIV-1 RF) of 0.152 ± 0.029 µM. It also gave a CC50 (MT-2 cells; [5]) of 124.1 ± 0.756 µM, an EC50 (92UG001 (clade D, X4)) of 0.19 ± 0.002 µM and an IC50 [3] of 930 ± 330 nM. For the same compound, the EC50 [4] was 0.982 ± 0.054 µM and the “inhibition” value [4] was “inhibited fusion”.
